Measured values from ChEMBL document CHEMBL3108730, “Exploring the determinants of trace amine-associated receptor 1's functional selectivity for the stereoisomers of amphetamine and methamphetamine” (J Med Chem, 2014).
pEC50: −log10 of the molar value. Calls of active or inactive are those of the source. The calls are words filed in the database; no cut-off is given here.

Key:
[1] = target: Trace amine-associated receptor 1 (Mus musculus, UniProt Q923Y8); test: Activation of mouse wild type TAAR1 expressed in HEK293 cells assessed as stimulation of cAMP production after 1 hr by chemiluminescent assay; format: functional, cell-based
Chain of Trace amine-associated receptor 1 (Mus musculus, UniProt Q923Y8) (Q923Y8 whole entry, the tested form may be a part): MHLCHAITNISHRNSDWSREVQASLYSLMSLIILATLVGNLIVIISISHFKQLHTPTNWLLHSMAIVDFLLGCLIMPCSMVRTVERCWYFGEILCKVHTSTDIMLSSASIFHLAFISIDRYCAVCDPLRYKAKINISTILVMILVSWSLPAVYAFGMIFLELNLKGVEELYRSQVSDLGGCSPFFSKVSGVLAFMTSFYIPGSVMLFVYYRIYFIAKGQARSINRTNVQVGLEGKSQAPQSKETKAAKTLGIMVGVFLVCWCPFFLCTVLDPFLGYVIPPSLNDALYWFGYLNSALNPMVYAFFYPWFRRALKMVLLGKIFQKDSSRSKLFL

[2] = tested on: Trace amine-associated receptor 1 (Rattus norvegicus), Q923Y9 [M268T]; test: Activation of rat TAAR1 transmembrane domain 6 Met268(6.55)Thr mutant expressed in HEK293 cells assessed as stimulation of cAMP production at 0.0001 to 100 uM after 1 hr by chemiluminescent assay relative to beta-phenylethylamine; format: functional, cell-based
Chain of Trace amine-associated receptor 1 (Rattus norvegicus), Q923Y9 [M268T] (Q923Y9 whole entry M268T, the tested form may be a part): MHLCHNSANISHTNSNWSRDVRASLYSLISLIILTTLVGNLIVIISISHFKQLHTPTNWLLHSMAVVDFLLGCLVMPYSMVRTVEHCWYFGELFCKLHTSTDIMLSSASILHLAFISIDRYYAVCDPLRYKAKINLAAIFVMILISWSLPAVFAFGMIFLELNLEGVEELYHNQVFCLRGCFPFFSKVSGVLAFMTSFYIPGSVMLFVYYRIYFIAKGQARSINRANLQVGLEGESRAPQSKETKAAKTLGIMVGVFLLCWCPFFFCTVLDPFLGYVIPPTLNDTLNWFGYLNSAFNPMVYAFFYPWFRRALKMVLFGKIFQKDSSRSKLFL

[3] = tested on: Trace amine-associated receptor 1 (Mus musculus), Q923Y8 [Y287N]; test: Activation of mouse TAAR1 transmembrane domain 7 Tyr287(7.39)Asn mutant expressed in HEK293 cells assessed as stimulation of cAMP production at 0.0001 to 100 uM after 1 hr by chemiluminescent assay relative to beta-phenylethylamine; format: functional, cell-based
Chain of Trace amine-associated receptor 1 (Mus musculus), Q923Y8 [Y287N] (Q923Y8 whole entry Y287N, the tested form may be a part): as the sequence (Q923Y8 whole entry, the tested form may be a part) above, with Y287N counted along it

[4] = target: Trace amine-associated receptor 1 (Mus musculus, UniProt Q923Y8, T268M); test: Activation of mouse TAAR1 transmembrane domain 6 Thr268(6.55)Met mutant expressed in HEK293 cells assessed as stimulation of cAMP production after 1 hr by chemiluminescent assay; format: functional, cell-based
Chain of Trace amine-associated receptor 1 (Mus musculus, UniProt Q923Y8, T268M) (Q923Y8 whole entry T268M, the tested form may be a part): as the sequence (Q923Y8 whole entry, the tested form may be a part) above, with T268M counted along it

Mus musculus = species on record: Mus musculus; test: Selectivity ratio of EC50 for mouse wild type TAAR1 to EC50 for mouse TAAR1 transmembrane domain 6 Thr268(6.55)Met mutant
[5] = target: Trace amine-associated receptor 1 (Rattus norvegicus) (UniProt Q923Y9); test: Activation of rat wild type TAAR1 expressed in HEK293 cells assessed as stimulation of cAMP production at 0.0001 to 100 uM after 1 hr by chemiluminescent assay relative to beta-phenylethylamine; format: functional, cell-based
Chain of Trace amine-associated receptor 1 (Rattus norvegicus) (Q923Y9 whole entry, the tested form may be a part): as the sequence (Q923Y9 whole entry M268T, the tested form may be a part) above, with T268M counted along it

[6] = target: Trace amine-associated receptor 1 (Mus musculus) (UniProt Q923Y8); test: Activation of mouse wild type TAAR1 expressed in HEK293 cells assessed as stimulation of cAMP production at 0.0001 to 100 uM after 1 hr by chemiluminescent assay relative to beta-phenylethylamine; format: functional, cell-based
Chain of Trace amine-associated receptor 1 (Mus musculus) (Q923Y8 whole entry, the tested form may be a part): as the sequence (Q923Y8 whole entry, the tested form may be a part) above

[7] = target: Trace amine-associated receptor 1 (Mus musculus, UniProt Q923Y8, Y287N); test: Activation of mouse TAAR1 transmembrane domain 7 Tyr287(7.39)Asn mutant expressed in HEK293 cells assessed as stimulation of cAMP production after 1 hr by chemiluminescent assay; format: functional, cell-based
Chain of Trace amine-associated receptor 1 (Mus musculus, UniProt Q923Y8, Y287N) (Q923Y8 whole entry Y287N, the tested form may be a part): as the sequence (Q923Y8 whole entry, the tested form may be a part) above, with Y287N counted along it

[8] = target: Trace amine-associated receptor 1 (Rattus norvegicus, UniProt Q923Y9, N287Y); test: Activation of rat TAAR1 transmembrane domain 7 Asn287(7.39)Tyr mutant expressed in HEK293 cells assessed as stimulation of cAMP production after 1 hr by chemiluminescent assay; format: functional, cell-based
Chain of Trace amine-associated receptor 1 (Rattus norvegicus, UniProt Q923Y9, N287Y) (Q923Y9 whole entry N287Y, the tested form may be a part): as the sequence (Q923Y9 whole entry M268T, the tested form may be a part) above, with T268M, N287Y counted along it

[9] = target: Trace amine-associated receptor 1 (Rattus norvegicus, UniProt Q923Y9, M268T); test: Activation of rat TAAR1 transmembrane domain 6 Met268(6.55)Thr mutant expressed in HEK293 cells assessed as stimulation of cAMP production after 1 hr by chemiluminescent assay; format: functional, cell-based
Chain of Trace amine-associated receptor 1 (Rattus norvegicus, UniProt Q923Y9, M268T) (Q923Y9 whole entry M268T, the tested form may be a part): as the sequence (Q923Y9 whole entry M268T, the tested form may be a part) above

[10] = tested on: Trace amine-associated receptor 1 (Mus musculus), Q923Y8 [D102A]; test: Activation of mouse TAAR1 Asp102(3.32)Ala mutant expressed in HEK293 cells assessed as stimulation of cAMP production at 0.0001 to 100 uM after 1 hr by chemiluminescent assay; format: functional, cell-based
Chain of Trace amine-associated receptor 1 (Mus musculus), Q923Y8 [D102A] (Q923Y8 whole entry D102A, the tested form may be a part): as the sequence (Q923Y8 whole entry, the tested form may be a part) above, with D102A counted along it

[11] = tested on: Trace amine-associated receptor 1 (Rattus norvegicus), Q923Y9 [N287Y]; test: Activation of rat TAAR1 transmembrane domain 7 Asn287(7.39)Tyr mutant expressed in HEK293 cells assessed as stimulation of cAMP production at 0.0001 to 100 uM after 1 hr by chemiluminescent assay relative to beta-phenylethylamine; format: functional, cell-based
Chain of Trace amine-associated receptor 1 (Rattus norvegicus), Q923Y9 [N287Y] (Q923Y9 whole entry N287Y, the tested form may be a part): as the sequence (Q923Y9 whole entry M268T, the tested form may be a part) above, with T268M, N287Y counted along it

[12] = tested on: Trace amine-associated receptor 1 (Mus musculus), Q923Y8 [T268M]; test: Activation of mouse TAAR1 transmembrane domain 6 Thr268(6.55)Met mutant expressed in HEK293 cells assessed as stimulation of cAMP production at 0.0001 to 100 uM after 1 hr by chemiluminescent assay relative to beta-phenylethylamine; format: functional, cell-based
Chain of Trace amine-associated receptor 1 (Mus musculus), Q923Y8 [T268M] (Q923Y8 whole entry T268M, the tested form may be a part): as the sequence (Q923Y8 whole entry, the tested form may be a part) above, with T268M counted along it

Rattus norvegicus = species on record: Rattus norvegicus; test: Selectivity ratio of EC50 for rat TAAR1 transmembrane domain 6 Met268(6.55)Thr mutant to EC50 for rat wild type TAAR1
[13] = tested on: Trace amine-associated receptor 1 (Rattus norvegicus), Q923Y9 [D102A]; test: Activation of rat TAAR1 Asp102(3.32)Ala mutant expressed in HEK293 cells assessed as stimulation of cAMP production at 0.0001 to 100 uM after 1 hr by chemiluminescent assay relative to control; format: functional, cell-based
Chain of Trace amine-associated receptor 1 (Rattus norvegicus), Q923Y9 [D102A] (Q923Y9 whole entry D102A): as the sequence (Q923Y9 whole entry M268T, the tested form may be a part) above, with D102A, T268M counted along it

[14] = target: Trace amine-associated receptor 1 (Rattus norvegicus, UniProt Q923Y9); test: Activation of rat wild type TAAR1 expressed in HEK293 cells assessed as stimulation of cAMP production after 1 hr by chemiluminescent assay; format: functional, cell-based
Chain of Trace amine-associated receptor 1 (Rattus norvegicus, UniProt Q923Y9) (Q923Y9 whole entry): as the sequence (Q923Y9 whole entry M268T, the tested form may be a part) above, with T268M counted along it

[15] = target: Trace amine-associated receptor 1 (Rattus norvegicus) (UniProt Q923Y9); test: Activation of rat wild type TAAR1 expressed in HEK293 cells assessed as stimulation of cAMP production at 0.0001 to 100 uM after 1 hr by chemiluminescent assay relative to control; format: functional, cell-based
[16] = tested on: Trace amine-associated receptor 1 (Rattus norvegicus), Q923Y9 [N287Y]; test: Activation of rat TAAR1 transmembrane domain 7 Asn287(7.39)Tyr mutant expressed in HEK293 cells assessed as stimulation of cAMP production at 0.0001 to 100 uM after 1 hr by chemiluminescent assay relative to control; format: functional, cell-based
[17] = tested on: Trace amine-associated receptor 1 (Rattus norvegicus), Q923Y9 [M268T]; test: Activation of rat TAAR1 transmembrane domain 6 Met268(6.55)Thr mutant expressed in HEK293 cells assessed as stimulation of cAMP production at 0.0001 to 100 uM after 1 hr by chemiluminescent assay relative to control; format: functional, cell-based
[18] = tested on: Trace amine-associated receptor 1 (Mus musculus), Q923Y8 [Y287N]; test: Activation of mouse TAAR1 transmembrane domain 7 Tyr287(7.39)Asn mutant expressed in HEK293 cells assessed as stimulation of cAMP production at 0.0001 to 100 uM after 1 hr by chemiluminescent assay relative to control; format: functional, cell-based
[19] = target: Trace amine-associated receptor 1 (Mus musculus) (UniProt Q923Y8); test: Activation of mouse wild type TAAR1 expressed in HEK293 cells assessed as stimulation of cAMP production at 0.0001 to 100 uM after 1 hr by chemiluminescent assay relative to control; format: functional, cell-based
[20] = tested on: Trace amine-associated receptor 1 (Mus musculus), Q923Y8 [T268M]; test: Activation of mouse TAAR1 transmembrane domain 6 Thr268(6.55)Met mutant expressed in HEK293 cells assessed as stimulation of cAMP production at 0.0001 to 100 uM after 1 hr by chemiluminescent assay relative to control; format: functional, cell-based

Row | SMILES | pEC50 [1] | Emax [2] [%] | Emax [3] [%] | pEC50 [4] | Ratio EC50 (Mus musculus) | Emax [5] [%] | Emax [6] [%] | pEC50 [7] | pEC50 [8] | pEC50 [9] | Activity [10] | Emax [11] [%] | Emax [12] [%] | Ratio EC50 (Rattus norvegicus) | pEC50 [14] | further results
1 | CN[C@H](C)Cc1ccccc1 | 6.07 | 77.6 | 89.6 | 6.90 | 10 | 82.5 | 96.9 | 5.80 | 6.48 | 5.96 | inactive | 93.3 | 91.5 | 10 |  | 
2 | NCCc1ccc(O)cc1 |  |  |  |  |  |  |  |  |  |  | inactive |  |  |  |  | Activity [13]: inactive
3 | C[C@H](N)Cc1ccccc1 [DEXTROAMPHETAMINE] | 7.07 | 93.8 | 93 | 8.40 |  | 102 | 99.8 | 6.66 |  |  | inactive | 103 | 98 |  |  | 
4 | C[C@@H](N)Cc1ccccc1 [LEVAMFETAMINE] |  | 91.6 | 89.4 | 6.92 |  | 86.7 | 93.6 | 6.98 |  |  | inactive | 95.8 | 90.5 |  |  | 
5 | CN[C@@H](C)Cc1ccccc1 [METHAMPHETAMINE] | 6.55 | 94.3 | 92.2 | 7.75 | 10 | 94.3 | 98 | 5.74 | 6.70 | 5.69 | inactive | 101 | 94 | 10 | 6.88 | 
6 | NCCc1ccccc1 [PHENETHYLAMINE] | 6.72 |  |  | 7.33 |  |  |  | 7.23 | 6.77 | 6.58 | inactive |  |  |  | 7.39 | Emax [15]: 96.4%; Emax [16]: 97.2%; Emax [17]: 97.8%; Emax [18]: 95.9%; Emax [19]: 95%; Emax [20]: 97.6%
